Target: aryl hydrocarbon receptor (AhR) (Mus musculus (Mouse), UniProt P30561)
Test: AhR ligand screening: AhRE-luciferase reporter in transfected Hepa1 cells
Type: cell-based
Details: for Fold @ 1 nM: fold change of luciferase expression at 1 nM test compound relative to vehicle (0.1% DMSO); for Fold @ 100 nM: fold change of luciferase expression at 100 nM test compound relative to vehicle (0.1% DMSO); for Fold @ 10 uM: fold change of luciferase expression at 10 uM test compound relative to vehicle (0.1% DMSO); for Fold relative to benchmark @ 100 nM: luciferase expression at 100 nM test compound relative to 100 nM benchmark compound 11-cl-BBQ
Method in brief: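 Values are fold luciferase induction relative to vehicle (0.1% DMSO), read by luminometry of lysates from Hepa1 cells carrying an AhRE-driven luciferase reporter. Cells were seeded at 1×10^4 per well, grown overnight and treated with compound before lysis.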

Chain of aryl hydrocarbon receptor (AhR) (P30561 10-805): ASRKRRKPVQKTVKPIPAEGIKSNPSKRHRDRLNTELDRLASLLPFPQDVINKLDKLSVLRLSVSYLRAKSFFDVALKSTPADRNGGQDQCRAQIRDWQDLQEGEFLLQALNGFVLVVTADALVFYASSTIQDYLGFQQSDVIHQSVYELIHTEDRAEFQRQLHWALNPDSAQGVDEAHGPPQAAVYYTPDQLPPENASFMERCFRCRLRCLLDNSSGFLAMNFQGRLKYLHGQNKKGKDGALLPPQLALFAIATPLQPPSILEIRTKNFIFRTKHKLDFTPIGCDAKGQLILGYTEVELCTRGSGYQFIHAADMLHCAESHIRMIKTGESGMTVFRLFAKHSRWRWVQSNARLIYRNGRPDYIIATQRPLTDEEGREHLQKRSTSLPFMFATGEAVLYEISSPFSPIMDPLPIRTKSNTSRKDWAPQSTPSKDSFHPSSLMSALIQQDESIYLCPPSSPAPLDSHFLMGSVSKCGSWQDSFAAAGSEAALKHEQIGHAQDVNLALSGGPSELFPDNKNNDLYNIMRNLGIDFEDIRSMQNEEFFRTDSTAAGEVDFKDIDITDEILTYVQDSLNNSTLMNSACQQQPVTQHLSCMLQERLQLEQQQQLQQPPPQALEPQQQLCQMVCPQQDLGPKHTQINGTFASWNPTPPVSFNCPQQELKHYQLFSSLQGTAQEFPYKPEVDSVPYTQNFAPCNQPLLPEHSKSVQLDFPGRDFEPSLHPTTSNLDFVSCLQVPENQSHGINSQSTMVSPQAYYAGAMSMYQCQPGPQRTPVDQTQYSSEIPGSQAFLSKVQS
Chain of aryl hydrocarbon receptor (AhR) (P53762 whole entry partner): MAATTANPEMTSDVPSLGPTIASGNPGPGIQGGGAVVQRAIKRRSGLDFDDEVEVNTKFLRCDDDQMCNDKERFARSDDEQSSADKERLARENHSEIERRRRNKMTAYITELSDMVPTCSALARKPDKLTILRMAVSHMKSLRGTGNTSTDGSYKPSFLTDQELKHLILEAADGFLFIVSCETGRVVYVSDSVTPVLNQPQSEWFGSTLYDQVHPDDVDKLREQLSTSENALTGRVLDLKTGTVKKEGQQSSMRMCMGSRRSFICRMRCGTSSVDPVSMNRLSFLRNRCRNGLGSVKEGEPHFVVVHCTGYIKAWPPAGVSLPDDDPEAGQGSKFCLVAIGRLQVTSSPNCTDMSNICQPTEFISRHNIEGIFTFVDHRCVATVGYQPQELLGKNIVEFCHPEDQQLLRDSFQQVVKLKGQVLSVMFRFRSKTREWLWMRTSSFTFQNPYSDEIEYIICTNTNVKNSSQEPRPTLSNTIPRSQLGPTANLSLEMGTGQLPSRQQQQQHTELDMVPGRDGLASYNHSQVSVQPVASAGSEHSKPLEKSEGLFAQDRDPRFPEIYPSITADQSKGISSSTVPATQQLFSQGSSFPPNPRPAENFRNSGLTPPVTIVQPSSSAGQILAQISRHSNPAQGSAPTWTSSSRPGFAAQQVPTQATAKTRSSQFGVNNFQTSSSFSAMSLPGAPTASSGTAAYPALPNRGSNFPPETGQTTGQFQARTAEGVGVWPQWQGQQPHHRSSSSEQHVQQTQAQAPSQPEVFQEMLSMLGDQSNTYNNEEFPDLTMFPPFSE

Structure (SMILES)	Fold @ 1 nM	Fold @ 100 nM	Fold @ 10 uM	Fold relative to benchmark @ 100 nM
O=C(c1ccc2c(c1)nc(-c1cccc3ccccc13)n2Cc1ccc(F)cc1)N1CCOCC1 [Compound 1403]	1 fold	2 fold	20 fold	0.07 fold
O=C(c1ccc2nc(-c3cccc4ccccc34)n(Cc3ccc(F)cc3)c2c1)N1CCOCC1 [Compound 1404]	1 fold	1 fold	6 fold	0.03 fold
O=C(c1ccc2c(c1)nc(-c1cccc3ccccc13)n2S(=O)(=O)c1ccc(Cl)cc1)N1CCCCC1 [Compound 1366]	1 fold	1 fold	10 fold	0.03 fold
COC(=O)c1ccc2c(c1)nc(-c1cccc3ccccc13)n2S(=O)(=O)c1ccc(C#N)cc1 [Compound 1361]	1 fold	2 fold	2 fold	0.07 fold
O=C(c1ccc(F)c(F)c1)n1c(-c2ccc(F)c(Cl)c2)nc2cc(Cl)ccc21 [Compound 580]	1 fold	3 fold	14 fold	0.2 fold
Clc1ccc2c(c1)nc(-c1cccc3ccccc13)n2Cc1ccncc1 [Compound 876]	1 fold	3 fold	32 fold	0.06 fold
COc1ccc(C(=O)n2c(-c3cccc4ccccc34)nc3ccc(Cl)cc32)cc1OC [Compound 683]	1 fold	26 fold	34 fold	1 fold
O=C(c1ccc(C(F)(F)F)cc1)c1c[nH]c2ccc(Cl)cc12 [Compound 883]	1 fold	1 fold	2 fold	0.02 fold
COC(=O)c1ccc2c(c1)nc(-c1cccc3ccccc13)n2C(=O)c1ccc(Cl)cc1Cl [Compound 1328]	1 fold	2 fold	11 fold	0.07 fold
O=C(c1ccccc1)n1c(-c2cccc3c2CCCC3)nc2cc(Cl)ccc21 [Compound 777]	1 fold	2 fold	6 fold	0.08 fold
O=C(c1ccccc1)n1c(-c2ccc(F)c3ccccc23)nc2cc(Cl)ccc21 [Compound 863]	1 fold	2 fold	34 fold	0.07 fold
CN1CCN(C(=O)c2ccc3nc(-c4cccc5ccccc45)n(S(=O)(=O)c4cccc(F)c4)c3c2)CC1 [Compound 1393]	1 fold	1 fold	4 fold	0.03 fold
Fc1ccc(Cn2c(-c3cccc4ccccc34)nc3cc(Cl)ccc32)cc1F [Compound 887]	1 fold	1 fold	14 fold	0.02 fold
O=C(c1ccccc1)n1c(-c2cccc(C(F)(F)F)c2)nc2cc(Cl)ccc21 [Compound 763]	1 fold	2 fold	22 fold	0.08 fold
O=C(c1ccc2c(c1)OCCO2)n1c(-c2cccc3ccccc23)nc2cc(Cl)ccc21 [Compound 851]	1 fold	21 fold	29 fold	0.84 fold
CN(C)c1ccc(C(=O)n2c(-c3cccc4ccccc34)nc3cc(Cl)ccc32)cc1 [Compound 685]	1 fold	13 fold	28 fold	0.5 fold

Structure (SMILES)	Fold @ 1 nM	Fold @ 100 nM	Fold @ 10 uM	Fold relative to benchmark @ 100 nM
O=C1c2ccccc2-c2nc3ccc(Cl)cc3n21 [Compound 488, 4-chloro-1,8-diazatetracyclo[7.7.0.0^2,7.0^10,15]hexadeca-2,4,6,8,10,12,14-heptaen-16-one]	1 fold	1 fold	4 fold	0.03 fold
COC(=O)c1ccc2nc(-c3cccc4ccccc34)n(Cc3ccc(F)c(F)c3)c2c1 [Compound 1339]	1 fold	1 fold	4 fold	0.03 fold
O=C(c1ccc2nc(-c3cccc4ccccc34)n(Cc3cccc4ccccc34)c2c1)N1CCOCC1 [Compound 1409]	1 fold	1 fold	4 fold	0.03 fold
CN1CCN(C(=O)c2ccc3nc(-c4cccc5ccccc45)n(Cc4ccc(F)c(F)c4)c3c2)CC1 [Compound 1365]	1 fold	1 fold	2 fold	0.03 fold
O=C(c1ccc2nc(-c3cccc4ccccc34)n(S(=O)(=O)c3ccc(C(F)(F)F)cc3)c2c1)N1CCOCC1 [Compound 1370]	1 fold	1 fold	4 fold	0.03 fold
O=C(c1ccc2nc(-c3cccc4ccccc34)n(S(=O)(=O)c3ccc(Cl)cc3)c2c1)N1CCOCC1 [Compound 1359]	1 fold	1 fold	2 fold	0.03 fold
O=C(c1ccc(SC(F)(F)F)cc1)n1c(-c2cccc3ccccc23)nc2ccc(Cl)cc21 [Compound 687]	1 fold	28 fold	32 fold	1.08 fold
O=C(c1ccc(F)c(F)c1)n1c(-c2cccc(-c3ccccc3)c2)nc2ccc(Cl)cc21 [Compound 772]	1 fold	1 fold	1 fold	0.04 fold
O=c1c2cccc3cccc(c32)c2nc3ccccc3n12 [Compound 523]	1.8 fold	11.5 fold	12 fold	0.82 fold
Fc1ccc(-n2c(-c3cccc4ccccc34)nc3cc(Cl)ccc32)nc1 [Compound 854, 5-chloro-1-(5-fluoropyridin-2-yl)-2-(naphthalen-1-yl)-1H-benzo[d]imidazole]	1 fold	1 fold	4 fold	0.03 fold
COc1ccc(C(=O)n2c(-c3cc4ccccc4s3)nc3cc(Cl)ccc32)cc1 [Compound 590]	1 fold	3 fold	45 fold	0.2 fold
COc1ccc(C(=O)n2c(-c3cc4ccccc4s3)nc3ccc(F)cc32)cc1 [Compound 635]	1 fold	2 fold	24 fold	0.22 fold
O=C(c1ccc2c(c1)nc(-c1cccc3ccccc13)n2S(=O)(=O)c1cccc(F)c1)N1CCCCC1 [Compound 1368]	1 fold	2 fold	2 fold	0.07 fold
O=C(c1ccccc1)n1c(-c2cc3ccccc3o2)nc2ccc(Cl)cc21 [Compound 588]	1 fold	5 fold	30 fold	0.33 fold
Cc1ccc(S(=O)(=O)n2c(-c3cccc4ccccc34)nc3ccccc32)cc1 [Compound 579]	1 fold	1 fold	2 fold	0.07 fold
